In this series the test system is CCRIS mutagenicity, Ames/micronucleus/aberration tests. Put plainly: CCRIS mutagenicity studies.
Where [1] appears, read: Test System: AMES SALMONELLA TYPHIMURIUM, Strain/Indicator: TA100, Metabolic Activation: NONE, Method: STANDARD PLATE.
Setting [2] is: Test System: AMES SALMONELLA TYPHIMURIUM, Strain/Indicator: TA100, Metabolic Activation: RAT, LIVER, S-9, AROCLOR 1254, Method: STANDARD PLATE.
[3] abbreviates: Test System: AMES SALMONELLA TYPHIMURIUM, Strain/Indicator: TA1538, Metabolic Activation: RAT, LIVER, S-9, AROCLOR 1254, Method: STANDARD PLATE.

Activity calls are given as the source filed them. No rule for the calls is given here.

From PubChem BioAssay AID1259407 (Chemical Carcinogenesis Research Information System (CCRIS), 2018) come the findings set out here.

`CCOc1cc(N=Nc2ccc(N(CC)CC)cc2)ccc1N=Nc1c(S(=O)(=O)O)cc2ccc(N)cc2c1O`: the mutagenic call is “inactive; negative” (Test System: AMES SALMONELLA TYPHIMURIUM, Strain/Indicator: TA98, Metabolic Activation: NONE, Method: STANDARD PLATE); “active; positive” (Test System: AMES SALMONELLA TYPHIMURIUM, Strain/Indicator: TA98, Metabolic Activation: RAT, LIVER, S-9, AROCLOR 1254, Method: STANDARD PLATE); “inactive; negative” under setting [1]; “inactive; negative” under setting [2]; “inactive; negative” (Test System: AMES SALMONELLA TYPHIMURIUM, Strain/Indicator: TA1538, Metabolic Activation: NONE, Method: STANDARD PLATE); “active; positive” under setting [3].
For the compound `O=C(Nc1snc2ccccc12)c1ccccc1`, the mutagenic call under setting [1] was “inactive; negative”; the mutagenic call (Test System: AMES SALMONELLA TYPHIMURIUM, Strain/Indicator: TA100, Metabolic Activation: S-9, Method: STANDARD PLATE) is “active; positive”; the mutagenic call (Test System: AMES SALMONELLA TYPHIMURIUM, Strain/Indicator: TA1537, Metabolic Activation: NONE, Method: STANDARD PLATE) is “inactive; negative”; the mutagenic call (Test System: AMES SALMONELLA TYPHIMURIUM, Strain/Indicator: TA1537, Metabolic Activation: S-9, Method: STANDARD PLATE) was “inactive; negative”.
Turning to `Cn1c(N)nc2nc3ccncc3cc21`, the mutagenic call by setting is: (Test System: AMES SALMONELLA TYPHIMURIUM, Strain/Indicator: TA98, Metabolic Activation: RAT, LIVER, S-9, AROCLOR 1254A, Method: STANDARD PLATE) “inactive; negative”; (Test System: AMES SALMONELLA TYPHIMURIUM, Strain/Indicator: YG1024, Metabolic Activation: RAT, LIVER, S-9, AROCLOR 1254A, Method: STANDARD PLATE) “active; positive”.
For the compound `COc1ccccc1O`, the mutagenic call was “active; positive (structural changes)” (End Point: IN VITRO CHROMOSOMAL ABERRATIONS, Test System: SYRIAN HAMSTER EMBRYO (SHE) CELLS, Metabolic Activation: NONE); “inactive; negative” (Test System: AMES SALMONELLA TYPHIMURIUM, Strain/Indicator: TA97, Metabolic Activation: HAMSTER, LIVER, S-9, AROCLOR 1254 (10 OR 30%), Method: VAPOR CHAMBER); “inactive; negative” (Test System: AMES SALMONELLA TYPHIMURIUM, Strain/Indicator: TA97, Metabolic Activation: NONE, Method: VAPOR CHAMBER); “inactive; negative” (Test System: AMES SALMONELLA TYPHIMURIUM, Strain/Indicator: TA97, Metabolic Activation: RAT, LIVER, S-9, AROCLOR 1254 (5, 10 OR 30%), Method: VAPOR CHAMBER); “inactive; negative” (Test System: AMES SALMONELLA TYPHIMURIUM, Strain/Indicator: TA98, Metabolic Activation: HAMSTER, LIVER, S-9, AROCLOR 1254 (10 OR 30%), Method: VAPOR CHAMBER); “inactive; negative” (Test System: AMES SALMONELLA TYPHIMURIUM, Strain/Indicator: TA98, Metabolic Activation: HAMSTER, LIVER, S-9, AROCLOR 1254 (30%), Method: PREINCUBATION). The mutagenic call by setting is: (Test System: AMES SALMONELLA TYPHIMURIUM, Strain/Indicator: TA98, Metabolic Activation: NONE, Method: PREINCUBATION) “inactive; negative”; (Test System: AMES SALMONELLA TYPHIMURIUM, Strain/Indicator: TA98, Metabolic Activation: NONE, Method: VAPOR CHAMBER) “inactive; negative”; (Test System: AMES SALMONELLA TYPHIMURIUM, Strain/Indicator: TA98, Metabolic Activation: RAT, LIVER, S-9, AROCLOR 1254 (10 OR 30%), Method: VAPOR CHAMBER) “inactive; negative”; (Test System: AMES SALMONELLA TYPHIMURIUM, Strain/Indicator: TA98, Metabolic Activation: RAT, LIVER, S-9, AROCLOR 1254 (30%), Method: PREINCUBATION) “inactive; negative”; (Test System: AMES SALMONELLA TYPHIMURIUM, Strain/Indicator: TA98, Metabolic Activation: RAT, LIVER, S-9, AROCLOR 1254, Method: PREINCUBATION) “inactive; negative”; (Test System: AMES SALMONELLA TYPHIMURIUM, Strain/Indicator: TA100, Metabolic Activation: HAMSTER, LIVER, S-9, AROCLOR 1254 (5, 10 OR 30%), Method: VAPOR CHAMBER) “inactive; negative”. For the same compound, the mutagenic call runs as follows: (Test System: AMES SALMONELLA TYPHIMURIUM, Strain/Indicator: TA100, Metabolic Activation: HAMSTER, LIVER, S-9, AROCLOR 1254 (30%), Method: PREINCUBATION) “inactive; negative”; (Test System: AMES SALMONELLA TYPHIMURIUM, Strain/Indicator: TA100, Metabolic Activation: NONE, Method: PREINCUBATION) “inactive; negative”; (Test System: AMES SALMONELLA TYPHIMURIUM, Strain/Indicator: TA100, Metabolic Activation: NONE, Method: VAPOR CHAMBER) “inactive; negative”; (Test System: AMES SALMONELLA TYPHIMURIUM, Strain/Indicator: TA100, Metabolic Activation: RAT, LIVER, S-9, AROCLOR 1254 (5, 10 OR 30%), Method: VAPOR CHAMBER) “inactive; negative”; (Test System: AMES SALMONELLA TYPHIMURIUM, Strain/Indicator: TA100, Metabolic Activation: RAT, LIVER, S-9, AROCLOR 1254 (30%), Method: PREINCUBATION) “inactive; negative”; (Test System: AMES SALMONELLA TYPHIMURIUM, Strain/Indicator: TA100, Metabolic Activation: RAT, LIVER, S-9, AROCLOR 1254, Method: PREINCUBATION) “inactive; negative”. The mutagenic call is, setting by setting: (Test System: AMES SALMONELLA TYPHIMURIUM, Strain/Indicator: TA102, Metabolic Activation: NONE, Method: PREINCUBATION) “inactive; negative”; (Test System: AMES SALMONELLA TYPHIMURIUM, Strain/Indicator: TA102, Metabolic Activation: RAT, LIVER, S-9, AROCLOR 1254, Method: PREINCUBATION) “inactive; negative”; (Test System: AMES SALMONELLA TYPHIMURIUM, Strain/Indicator: TA1535, Metabolic Activation: HAMSTER, LIVER, S-9, AROCLOR 1254 (10 OR 30%), Method: VAPOR CHAMBER) “inactive; negative”; (Test System: AMES SALMONELLA TYPHIMURIUM, Strain/Indicator: TA1535, Metabolic Activation: NONE, Method: VAPOR CHAMBER) “inactive; negative”; (Test System: AMES SALMONELLA TYPHIMURIUM, Strain/Indicator: TA1535, Metabolic Activation: RAT, LIVER, S-9, AROCLOR 1254 (10 OR 30%), Method: VAPOR CHAMBER) “inactive; negative”.
As for `C=CC(=O)OCC` (tested in a mixture with another compound), the mutagenic call by setting is: under setting [2], “active; positive”; (Test System: AMES SALMONELLA TYPHIMURIUM, Strain/Indicator: TA1535, Metabolic Activation: RAT, LIVER, S-9, AROCLOR 1254, Method: STANDARD PLATE) “active; positive”; under setting [3], “inactive; negative”.
In the case of `[N-]=[N+]=N[C@H](c1ccccc1)[C@@H](O)CO`, the mutagenic call (Test System: AMES SALMONELLA TYPHIMURIUM, Strain/Indicator: TA100, Metabolic Activation: RAT, LIVER, S-9, PCB, Method: PREINCUBATION) was “active; positive”.
`Cc1cc(C)c(N=Nc2c(O)c(S(=O)(=O)O)cc3cc(S(=O)(=O)O)ccc23)cc1C`: the mutagenic call is “active; positive” (Test System: AMES SALMONELLA TYPHIMURIUM, Strain/Indicator: TA100, Metabolic Activation: HAMSTER, LIVER, S-9, Method: PREINCUBATION (PRIVAL METHOD)); “active; positive. reevaluation of results: equivocal” (Test System: MOUSE LYMPHOMA, Strain/Indicator: L5178Y (TK+/TK-), Metabolic Activation: NONE, Method: SUSPENSION/PLATE); “active; positive. reevaluation of results: equivocal” (Test System: MOUSE LYMPHOMA, Strain/Indicator: L5178Y (TK+/TK-), Metabolic Activation: RAT, LIVER, S-9, AROCLOR 1254, Method: SUSPENSION/PLATE).
